{"source": "patent US12102660B2", "about": "“Association of N-acetylcysteine and colistin for use in bacterial infections” (Zambon S.P.A., priority 2017, dated 2024)", "key": {"[1]": {"test_system": "colistin resistant A. baumannii clinical isolates", "assay": "MIC determination and classic checkerboard assays (colistin, NAC)", "assay_type": "cell-based, Acinetobacter baumannii", "details": "for MIC: Acinetobacter baumannii", "description": "(§1) In vitro antimicrobial synergism between NAC and colistin was determined following EUCAST guidelines. In particular, the total fractional inhibitory concentration (ΣFIC) was calculated as follows: ΣFIC equals FIC of agent A plus FIC of agent B, where the FIC of agent A or B is the minimum inhibitory concentration (MIC) of agent A or B in the presence of the other divided by the MIC of agent A or B alone. Synergism was defined as a ΣFIC value of <0.5.\nClassic checkerboard assays were used to investigate potential synergism between colistin (range 0.25-256 μg/ml) and NAC (range 0.5-32 mg/ml). Fraction inhibitory concentration indices (FICIs) were calculated, and synergism was defined as FICI values <0.5. Synergy between colistin and NAC was also confirmed by time-kill assays performed with one isolate, using two different concentrations of colistin (2 and 8 μg/ml, representing concentrations achievable in serum and epithelial lining fluid—ELF, respectively) and NAC (1.6 and 8 mg/ml, likely achievable in ELF by topical administration)."}, "[2]": {"test_system": "S. maltophilia clinical isolates", "assay": "MIC determination and classic checkerboard assays (colistin, NAC)", "assay_type": "cell-based, Stenotrophomonas maltophilia", "details": "for MIC: Stenotrophomonas maltophilia", "description": "as §1\nTwenty S. maltophilia clinical isolates were tested, including also four isolates from patients affected by cystic fibrosis (CF). […] Synergism between colistin (range 0.25-256 μg/ml) and NAC (range 0.5-32 mg/ml) was investigated by classic checkerboard assays. Fraction inhibitory concentration indices (FICIs) were calculated, and synergism was defined as FICI values <0.5. Time-kill assays were performed with two clinical isolates (including one strain resistant to trimethoprim-sulphamethoxazole, and one from CF). For this purpose, two different concentrations of colistin (2 and 8 μg/ml, representing concentrations achievable in serum and epithelial lining fluid—ELF, respectively) and NAC (1.6 and 8 mg/ml, likely achievable in ELF by topical administration) were tested alone and in combination."}, "[3]": {"details": "seven colistin resistant A. baumannii clinical isolates"}, "[4]": {"details": "twenty S. maltophilia clinical isolates"}}, "note": "Read-outs that look alike come from different tables or passages of the source."}
{"molecule": "colistin sulfate", "values": [{"measurement": "Colistin MIC", "setting": "[1]; isolate N50", "value": 16, "unit": "µg/mL"}, {"measurement": "MIC50", "setting": "[1]; [3]", "value": 64, "unit": "µg/mL"}, {"measurement": "MIC90", "setting": "[1]; [3]", "value": 128, "unit": "µg/mL"}, {"measurement": "colistin MIC range", "setting": "[1]; [3]", "value": "16 to 256", "unit": "µg/mL"}, {"measurement": "colistin 8 μg/ml as multiple of MIC", "setting": "[1]; strain Z165", "value": 0.25, "unit": "×MIC"}, {"measurement": "colistin 8 μg/ml as multiple of MIC", "setting": "[1]; strain Z167", "value": 0.06, "unit": "×MIC"}, {"measurement": "MIC50", "setting": "[2]; [4]", "value": 16, "unit": "µg/mL"}, {"measurement": "MIC90", "setting": "[2]; [4]", "value": 64, "unit": "µg/mL"}]}
{"molecule": "CC(=O)N[C@@H](CS)C(=O)O", "note": "[NAC, N-acetylcysteine]", "values": [{"measurement": "MIC", "setting": "[1]; isolate N50, read-out: NAC MIC", "value": "> 32", "unit": "mg/mL"}, {"measurement": "MIC", "setting": "[1]; the remaining A. baumannii isolates, read-out: MIC of NAC", "value": "> 32", "unit": "mg/mL"}, {"measurement": "MIC", "setting": "[1]; two of seven A. baumannii isolates, read-out: MIC of NAC", "value": 32, "unit": "mg/mL"}, {"measurement": "MIC", "setting": "[2]; nine S. maltophilia isolates", "value": 16, "unit": "mg/mL"}, {"measurement": "MIC", "setting": "[2]; one S. maltophilia isolate", "value": "> 32", "unit": "mg/mL"}, {"measurement": "MIC", "setting": "[2]; the remaining S. maltophilia isolates", "value": 32, "unit": "mg/mL"}]}
